In patent US11180474B2 (BRISTOL-MYERS SQUIBB COMPANY, priority 2016, dated 2021):

Target: T1, human TLR9 (Homo sapiens, UniProt Q9NR96)
T1 construct: host or cells: HEK-Blue cells
T1 sequence (Q9NR96 26-1032): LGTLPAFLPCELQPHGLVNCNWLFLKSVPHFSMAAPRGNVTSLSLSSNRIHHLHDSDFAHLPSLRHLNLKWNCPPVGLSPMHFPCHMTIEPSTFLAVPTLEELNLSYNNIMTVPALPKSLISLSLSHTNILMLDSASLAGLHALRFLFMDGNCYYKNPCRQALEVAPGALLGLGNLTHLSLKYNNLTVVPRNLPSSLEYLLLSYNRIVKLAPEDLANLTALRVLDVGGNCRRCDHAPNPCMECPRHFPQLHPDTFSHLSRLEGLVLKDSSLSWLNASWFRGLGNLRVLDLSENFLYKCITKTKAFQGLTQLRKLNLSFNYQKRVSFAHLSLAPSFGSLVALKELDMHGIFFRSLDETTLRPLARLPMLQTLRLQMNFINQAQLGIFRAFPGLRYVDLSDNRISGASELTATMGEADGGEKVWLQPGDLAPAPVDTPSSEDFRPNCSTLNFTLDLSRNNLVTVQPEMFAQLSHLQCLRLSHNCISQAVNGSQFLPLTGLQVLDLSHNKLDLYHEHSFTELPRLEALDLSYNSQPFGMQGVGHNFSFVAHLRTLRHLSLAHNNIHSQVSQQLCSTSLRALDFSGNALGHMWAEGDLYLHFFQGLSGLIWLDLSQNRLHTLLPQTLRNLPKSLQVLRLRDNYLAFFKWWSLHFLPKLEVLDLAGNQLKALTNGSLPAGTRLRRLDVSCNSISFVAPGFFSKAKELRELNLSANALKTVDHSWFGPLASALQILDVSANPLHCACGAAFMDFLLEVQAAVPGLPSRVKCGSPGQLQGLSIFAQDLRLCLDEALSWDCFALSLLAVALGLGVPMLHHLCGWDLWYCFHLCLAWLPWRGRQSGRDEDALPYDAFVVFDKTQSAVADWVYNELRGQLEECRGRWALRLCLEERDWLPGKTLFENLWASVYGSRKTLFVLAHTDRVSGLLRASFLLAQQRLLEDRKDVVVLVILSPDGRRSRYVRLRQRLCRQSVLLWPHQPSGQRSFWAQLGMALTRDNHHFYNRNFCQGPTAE
Experiment: TLR9 inhibition reporter assay (HEK-Blue cells, SEAP reporter, ODN2006 stimulation)
Type: cell-based
Settings: HEK-Blue cells overexpressing human TLR9, ODN2006 5 nM
Procedure, shortened: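 Screening used HEK-Blue cells overexpressing one human TLR (7, 8 or 9) and an IFN-β minimal promoter–NF-κB/AP-1 SEAP construct. Stimulation lasted 22 h at 37 °C with receptor-specific agonist: gardiquimod, R848 or ODN2006 at 7.5 μM, 15.9 μM and 5 nM.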

SMILES	IC50
COc1ccc(-c2[nH]c3ccc(C4CCN(C(=O)C[C@H](C)N)CC4)cc3c2C(C)C)cc1OC [Example 253, (S)-3-amino-1-(4-(2-(3,4-dimethoxyphenyl)-3-isopropyl-1H-indol-5-yl)piperidin-1-yl)butan-1-one]	445 nM
COc1ccc(-c2[nH]c3ccc(C4CCN(Cc5nccn5C)CC4)cc3c2C(C)C)cc1OC [Example 262, 2-(3,4-dimethoxyphenyl)-3-isopropyl-5-(1-((1-methyl-1H-imidazol-2-yl)methyl)piperidin-4-yl)-1H-indole]	2970 nM
COc1ccc(-c2[nH]c3ccc(C4CCN(C(=O)CNCC(N)=O)CC4)cc3c2C(C)C)cc1OC [Example 228, 2-((2-(4-(2-(3,4-dimethoxyphenyl)-3-isopropyl-1H-indol-5-yl)piperidin-1-yl)-2-oxoethyl)amino)acetamide]	15100 nM
COc1ccc(-c2[nH]c3ccc(C4CCN(Cc5cnc(C)[nH]5)CC4)cc3c2C(C)C)cc1OC [Example 266, 2-(3,4-dimethoxyphenyl)-3-isopropyl-5-(1-((2-methyl-1H-imidazol-5-yl)methyl)piperidin-4-yl)-1H-indole]	1260 nM
COc1ccc(-c2[nH]c3ccc(C4CCN(C(=O)CN[C@H](CO)CC(C)C)CC4)cc3c2C(C)C)cc1OC [Example 231, (S)-1-(4-(2-(3,4-dimethoxyphenyl)-3-isopropyl-1H-indol-5-yl)piperidin-1-yl)-2-((1-hydroxy-4-methylpentan-2-yl)amino)ethan-1-one]	1930 nM
COc1ccc(-c2[nH]c3ccc(C4CCN(C(=O)CNCCOCCO)CC4)cc3c2C(C)C)cc1OC [Example 230, 1-(4-(2-(3,4-dimethoxyphenyl)-3-isopropyl-1H-indol-5-yl)piperidin-1-yl)-2-((2-(2-hydroxyethoxy)ethyl)amino)ethan-1-one]	2200 nM
COc1ccc(-c2[nH]c3ccc(C4CCN(C(=O)CN(C)CCO)CC4)cc3c2C(C)C)cc1OC [Example 242, 1-(4-(2-(3,4-dimethoxyphenyl)-3-isopropyl-1H-indol-5-yl)piperidin-1-yl)-2-((2-hydroxyethyl)(methyl)amino)ethan-1-one]	976 nM
CNCC(=O)N1CCC(c2ccc3[nH]c(-c4ccc(OC)c(OC)c4)c(C(C)C)c3c2)CC1 [Example 256, 1-(4-(2-(3,4-dimethoxyphenyl)-3-isopropyl-1H-indol-5-yl)piperidin-1-yl)-2-(methylamino)ethan-1-one]	2320 nM
COc1ccc(-c2[nH]c3ccc(C4CCNCC4O)cc3c2C(C)C)cc1OC (single isomer, unassigned) [Example 317, 4-(2-(3,4-dimethoxyphenyl)-3-isopropyl-1H-indol-5-yl)piperidin-3-ol 2,2,2-trifluoroacetate]	4720 nM
COc1ccc(-c2[nH]c3ccc(C4CCN(Cc5cnn(C)c5)CC4)cc3c2C(C)C)cc1OC [Example 259, 2-(3,4-dimethoxyphenyl)-3-isopropyl-5-(1-((1-methyl-1H-pyrazol-4-yl)methyl)piperidin-4-yl)-1H-indole]	2030 nM
COc1ccc(-c2[nH]c3ccc(C4CCN(C(=O)CO)CC4)cc3c2C(C)C)cc1OC [Example 313, 1-(4-(2-(3,4-dimethoxyphenyl)-3-isopropyl-1H-indol-5-yl)piperidin-1-yl)-2-hydroxyethanone]	48300 nM

Next, values leading:

IC50	SMILES
≥ 50000 nM	COc1ccc(-c2[nH]c3ccc(C4CCN(C(=O)CN5CCOCC5)CC4)cc3c2C(C)C)cc1OC [Example 223, 1-(4-(2-(3,4-dimethoxyphenyl)-3-isopropyl-1H-indol-5-yl)piperidin-1-yl)-2-morpholinoethan-1-one]
5230 nM	COc1ccc(-c2[nH]c3ccc(C4CCN(C(=O)CN5CCC[C@@H](C(=O)N6CC7CNCC7C6)C5)CC4)cc3c2C(C)C)cc1OC (stereo partly drawn) [Example 310, 1-(4-(2-(3,4-dimethoxyphenyl)-3-isopropyl-1H-indol-5-yl)piperidin-1-yl)-2-((3R)-3-(octahydropyrrolo[3,4-c]pyrrole-2-carbonyl)piperidin-1-yl) ethan-1-one]
3400 nM	CCN(CC)C(=O)C1CCCN(C(=O)CN2CCC(c3ccc4[nH]c(-c5ccc(OC)c(OC)c5)c(C(C)C)c4c3)CC2)C1 (stereo not shown) [Example 272, 1-(2-(4-(2-(3,4-dimethoxyphenyl)-3-isopropyl-1H-indol-5-yl)piperidin-1-yl)acetyl)-N,N-diethylpiperidine-3-carboxamide]
586 nM	COc1ccc(-c2[nH]c3ccc(C4CCN(C(=O)CN5CCCC(C(=O)NC6CCN(C(C)C)CC6)C5)CC4)cc3c2C(C)C)cc1OC (single isomer, unassigned) [Example 281, 1-(2-(4-(2-(3,4-dimethoxyphenyl)-3-isopropyl-1H-indol-5-yl)piperidin-1-yl)-2-oxoethyl)-N-(1-isopropylpiperidin-4-yl)piperidine-3-carboxamide]
6990 nM	COc1ccc(-c2[nH]c3ccc(C4CCN(C(=O)CN5CCC[C@H](C(=O)N6CC7CNCC7C6)C5)CC4)cc3c2C(C)C)cc1OC (stereo partly shown) [Example 299, 1-(4-(2-(3,4-dimethoxyphenyl)-3-isopropyl-1H-indol-5-yl)piperidin-1-yl)-2-((3 S)-3-(octahydropyrrolo[3,4-c]pyrrole-2-carbonyl)piperidin-1-yl)ethan-1-one]
163 nM	CCN(CC)C(=O)C1CCCN(CC(=O)N2CCC(c3ccc4[nH]c(-c5ccc(OC)c(OC)c5)c(C(C)C)c4c3)CC2)C1 (stereo not shown) [Example 248, 1-(2-(4-(2-(3,4-dimethoxyphenyl)-3-isopropyl-1H-indol-5-yl)piperidin-1-yl)-2-oxoethyl)-N,N-diethylpiperidine-3-carboxamide]
381 nM	COc1ccc(-c2[nH]c3ccc(C4CCN(C(=O)CN5CCC(N(C)C)CC5)CC4)cc3c2C(C)C)cc1OC [Example 244, 1-(4-(2-(3,4-dimethoxyphenyl)-3-isopropyl-1H-indol-5-yl)piperidin-1-yl)-2-(4-(dimethylamino)piperidin-1-yl)ethan-1-one]
321 nM	COc1ccc(-c2[nH]c3ccc(C4CCN(C(=O)CN5CCC[C@H](C(=O)N6C(C)CCC6C)C5)CC4)cc3c2C(C)C)cc1OC (stereo partly drawn) [Example 300, 1-(4-(2-(3,4-dimethoxyphenyl)-3-isopropyl-1H-indol-5-yl)piperidin-1-yl)-2-((3S)-3-(2,5-dimethylpyrrolidine-1-carbonyl)piperidin-1-yl)ethan-1-one]
1810 nM	COc1ccc(-c2[nH]c3ccc(C4CCN(C(=O)CN5CCC[C@H](C(=O)N6CCCC(O)C6)C5)CC4)cc3c2C(C)C)cc1OC (stereo partly drawn) [Example 292, 1-(4-(2-(3,4-dimethoxyphenyl)-3-isopropyl-1H-indol-5-yl)piperidin-1-yl)-2-((3S)-3-(3-hydroxypiperidine-1-carbonyl)piperidin-1-yl)ethan-1-one]
579 nM	COc1ccc(-c2[nH]c3ccc(C4CCN(C(=O)CN5CCC[C@@H](C(=O)N6CCN(CCN7CCCC7)CC6)C5)CC4)cc3c2C(C)C)cc1OC [Example 307, (R)-1-(4-(2-(3,4-dimethoxyphenyl)-3-isopropyl-1H-indol-5-yl)piperidin-1-yl)-2-(3-(4-(2-(pyrrolidin-1-yl)ethyl)piperazine-1-carbonyl)piperidin-1-yl)ethan-1-one]
633 nM	COc1ccc(-c2[nH]c3ccc(C4CCN(C(=O)CN5CCC[C@H](C(=O)N(C)C(C)C)C5)CC4)cc3c2C(C)C)cc1OC [Example 288, (S)-1-(2-(4-(2-(3,4-dimethoxyphenyl)-3-isopropyl-1H-indol-5-yl)piperidin-1-yl)-2-oxoethyl)-N-isopropyl-N-methylpiperidine-3-carboxamide]
403 nM	CCN(CC)C(=O)C1CCCN(CC(=O)N2CCC(c3ccc4[nH]c(-c5ccc(OC)c(OC)c5)c(C(C)C)c4c3)CC2)C1 (stereo not shown) [Example 224, 1-(2-(4-(2-(3,4-dimethoxyphenyl)-3-isopropyl-1H-indol-5-yl)piperidin-1-yl)-2-oxoethyl)-N,N-diethylpiperidine-3-carboxamide]
564 nM	COc1ccc(-c2[nH]c3ccc(C4CCN(C(=O)CN5CCC[C@@H](C(=O)N6CCN(C(C)C)CC6)C5)CC4)cc3c2C(C)C)cc1OC [Example 302, (R)-1-(4-(2-(3,4-dimethoxyphenyl)-3-isopropyl-1H-indol-5-yl)piperidin-1-yl)-2-(3-(4-isopropylpiperazine-1-carbonyl)piperidin-1-yl)ethan-1-one]
1380 nM	COc1ccc(-c2[nH]c3ccc(C4CCN(C(=O)CNC5CCCC5O)CC4)cc3c2C(C)C)cc1OC (stereo not shown) [Example 236, 1-(4-(2-(3,4-dimethoxyphenyl)-3-isopropyl-1H-indol-5-yl)piperidin-1-yl)-2-((2-hydroxycyclopentyl)amino)ethan-1-one]
